Results taken from article PMC5104457, “ATP-Competitive MLKL Binders Have No Functional Impact on Necroptosis” (PLoS ONE, 2016).

Tests used:
[1] = test system: FADD (-/-) Jurkat cells; assay: Viability experiment in the absence of TNF; assay type: cell-based; conditions: FADD deficient Jurkat cells, Fig 3A
Experimental: Necroptosis assays were performed at Charles River Laboratories (United Kingdom) and at Biogen. […] On the day of the experiment, cells were counted using Nexcelom Bioscience Cell Meter Vision and pelleted by centrifugation. Cell pellets were resuspended in fresh medium at 500,000 cells per mL and transferred to assay-ready compound plates prepared in 384-well white TC plates (Greiner #781080) at 20μl cells per well. Cells and compound were incubated at room temperature for 30 minutes followed by +/- stimulation with 15ng/ml TNF-α (Cell signalling Technologies #8902LF) overnight at 37°C. In the morning, plates were equilibrated to room temperature for 30 minutes and 25μl of CellTiter-Glow (CellTiter-Glo 2.0 Assay, Promega # G9243) diluted 1:4 in PBS was added to each well and allowed to incubate for 10 minutes at room temperature. Luminescence was read on an Envision plate reader (Perkin Elmer). Percent viability values are calculated from separate dose response experiments identical to the percent rescue experiment except that no TNF is added to the cells. This assay is intended to identify compounds that not only don’t rescue, but are toxic themselves. 100% Viability is defined as the intensity value of the “no TNF” wells, cell treated with neither compound nor TNF. […]

[2] = target: T1, full length MLKL (Homo sapiens, UniProt Q8NB16); assay: KINOMEscan ATP-competitive probe displacement (competition binding) assay, MLKL; conditions: average of duplicates
T1 construct: purchased DiscoverX (KINOMEscan service); host or cells: HEK-293
T1 sequence (Q8NB16 1-471): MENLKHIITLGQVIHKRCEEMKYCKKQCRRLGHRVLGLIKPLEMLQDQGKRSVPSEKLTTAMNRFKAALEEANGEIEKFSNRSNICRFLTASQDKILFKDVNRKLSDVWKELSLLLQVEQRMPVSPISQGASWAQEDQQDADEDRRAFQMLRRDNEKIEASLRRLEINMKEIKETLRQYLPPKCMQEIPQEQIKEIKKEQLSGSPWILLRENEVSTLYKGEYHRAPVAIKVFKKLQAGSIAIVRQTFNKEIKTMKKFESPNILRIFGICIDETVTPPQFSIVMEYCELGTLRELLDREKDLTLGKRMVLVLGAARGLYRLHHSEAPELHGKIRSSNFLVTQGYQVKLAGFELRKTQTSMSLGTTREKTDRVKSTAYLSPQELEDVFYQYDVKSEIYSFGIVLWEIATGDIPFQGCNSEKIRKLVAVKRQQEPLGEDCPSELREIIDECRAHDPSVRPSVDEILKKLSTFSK
Experimental: Compound binding constants (KDs) were determined at DiscoverX using their KINOMEscan assay platform. […] Briefly, full length MLKL was expressed in HEK-293 cells as a fusion with an NFκB DNA binding domain and subsequently tagged with a qPCR detection amplicon via interaction with NFκB. […] Twenty microliters of binding reactions were carried out in 384-well polypropylene plates for 1 hour at room temperature. Beads were subsequently washed and resuspended in elution buffer for 30 minutes at room temperature with shaking. The concentration of MLKL in the eluates was measured by qPCR and compound binding constants were calculated using a standard dose-response curve.
(§1) A similar approach was used to measure binding affinities for RIPK1 and RIPK3 kinase domains.

[3] = target: T2, RIPK1 kinase domain (Homo sapiens, UniProt Q13546); assay: ATP-competitive probe displacement assay, RIPK1; assay type: binding; conditions: average of duplicates
T2 construct: purchased DiscoverX
T2 sequence (Q13546 17-289 limits assumed): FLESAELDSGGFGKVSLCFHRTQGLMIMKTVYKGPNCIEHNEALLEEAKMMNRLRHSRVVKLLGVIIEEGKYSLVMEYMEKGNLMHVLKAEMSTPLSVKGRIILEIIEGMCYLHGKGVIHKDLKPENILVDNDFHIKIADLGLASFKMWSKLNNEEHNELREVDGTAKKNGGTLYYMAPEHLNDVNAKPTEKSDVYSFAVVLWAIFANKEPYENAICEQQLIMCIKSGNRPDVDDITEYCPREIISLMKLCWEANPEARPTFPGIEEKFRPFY
Experimental: Compound binding constants (KDs) were determined at DiscoverX using their KINOMEscan assay platform. This competition binding assay was previously described in Karaman et al. (2008)[18]. Briefly, full length MLKL was expressed in HEK-293 cells as a fusion with an NFκB DNA binding domain and subsequently tagged with a qPCR detection amplicon via interaction with NFκB. […] Twenty microliters of binding reactions were carried out in 384-well polypropylene plates for 1 hour at room temperature. Beads were subsequently washed and resuspended in elution buffer for 30 minutes at room temperature with shaking. The concentration of MLKL in the eluates was measured by qPCR and compound binding constants were calculated using a standard dose-response curve.
as §1

Structure (SMILES) | compound concentration at which cell viability became an issue [1] | Kd [2] | Kd [3]
CN(c1ccc(NC(=O)Nc2ccc(OC(F)(F)F)cc2)cc1)c1ccnc(Nc2cccc(S(N)(=O)=O)c2)n1 [cpd 1, reference compound] | > 2000 nM | – | –
Nc1nccnc1C(=O)O[C@@H](C(=O)Nc1ccc(F)cc1)c1ccccc1 [cpd 4, 3-Amino-pyrazine-2-carboxylic acid (R)-(4-fluorophenylcarbamoyl)-phenyl-methyl ester] | – | 0.23 µM | > 30 µM
